According to US8058437B2, “(Pyrroloquinoxalinyl) pyrazinecarbohydrazide-oxalic acid co-crystal for treatment of cancer and other diseases” (Novelix Pharmaceuticals, Inc., priority 2008, dated 2011):

Experiment: Salt formation experiments / physical characteristics of solid forms
Format: physicochemical
Conditions: solid hydrochloride salt
Procedure: Thus, a series of experiments was conducted to assess the preparation of NVX-144 salts of acids other than hydrochloric acid as possible novel compounds better suited to pharmaceutical preparations. […] As expected, NVX-144 base readily formed salts with strong organic acids.
Although oxalic acid co-crystals are rare, Trask et al. have reported a co-crystal of caffeine with oxalic acid (see Trask et al., “Pharmaceutical Cocrystallization: Engineering a Remedy for Caffeine Hydration,” Crystal Growth & Design, 5, 1013-21 (2005)).
Thus NVX-144 would not be expected to form a salt with oxalic acid, a relatively strong dicarboxylic acid.

## Cl.O=C(NNc1nc2cc(F)ccc2n2cccc12)c1cnccn1 [NVX-144.HCl, N′-(7-fluoropyrrolo[1,2a]quinoxalin-4-yl)pyrazine-2-carbohydrazide hydrochloride]
  physical characteristics of crystals: fluffy, statically-charged, hygroscopic crystals
